The subject of experiment [1] is SNST1c (expressed Na+/nucleoside cotransporter). The experiment can be described thus: Inhibition of [3H]uridine / radiolabeled nucleoside uptake in oocytes expressing SNST1c. The experiment is classed as cell-based, rabbit. The conditions noted are these: for inhibition of [3H]uridine transport by SNST1c: 1 mM nucleoside, 0.6 μM [3H]uridine, Na+ containing buffer (FIG. 4B). As to the method:
(§1) Measurements were made of [^3 H] uridine uptake in oocytes expressing SNST1c (FIG. 4A and 4B). Uptakes were measured over 5 min in a buffer containing either 100 mM NaCl, choline chloride or LiCl as described by Coady et al., Arch. Biochem. Biophys. 283:130-134 (1990), incorporated by reference herein. [All of the solutions contained 2 mM KCL, 1 mM MgCl2, 1 mM CaCl2, 10 mM HEPES/Tris, pH 7.5 and either 100 mM NaCl (Na^+ transport buffer) or 100 mM choline-Cl (choline transport buffer). The uptake solutions contained radiolabeled substrate while the wash solutions contained nonradioactive substrate. Oocytes were injected with water as a control, or SNST1c cRNA (50 ng). Oocytes were preincubated for 30 min in substrate-free choline transport buffer when uptakes in Na^+ and choline were to be compared. Transport of substrate was assayed by placing 4-6 oocytes in 0.5 ml of radioactive uptake solution, preceded by a 30 min preincubation in a Na^+ -free (100 mM choline-Cl) solution when Na^+ -dependent transport was to be measured. Transport was stopped by washing the oocytes five times with 4 ml of ice-cold choline solution containing excess unlabeled substrate. The oocytes were individually dissolved in 1.0 ml of 10% SDS and assayed for radioactivity. All data are expressed as mean ±SD. FIG. 4A indicates cation dependence of 1 μM [^3 H]uridine uptake in oocytes expressing SNST1c 4 days post-injection. In addition, inhibition of 0.6 μM [^3 H] uridine uptake in oocytes by 1 mM nucleosides was determined (FIG. 4B). Uptakes were measured in Na^+ containing buffer (Coady et al., supra) Oocytes were injected with water as a control, or SNST1c cRNA (50 ng) .
Uptake of radiolabeled nucleosides into Xenopus oocytes was measured in the presence or absence of Na^+ as described above in Example 1, and in the presence and absence of 1 mM phloridzin (Sigma, St. Louis, Mo.). […]

Experiment [2] has as its system SNST1c (chimeric Na+/nucleoside cotransporter SNST1). Nature of the experiment: Uptake of radiolabelled substrates in Xenopus oocytes expressing SNST1c. The experiment is classed as cell-based, rabbit. The conditions noted are these: for transport of radiolabelled substrate by SNST1c: Xenopus oocytes injected with SNST1c RNA. As to the method: (§2) Oocyte injections. Xenopus oocytes were dissected and injected, and transport was measured as described below. Stage V and VI oocytes (Dumont, J. Morphol. 136:153-180 (1972)) from Xenopus laevis (Xenopus One, Ann Arbor, Mich.) were dissected and defolliculated as described by Hediger et al., Proc. Natl. Acad. Sci. USA 84:2634-2637 (1987) and Coady et al., Arch. Biochem. Biophys. 265:73-81 (1990), both of which are incorporated by reference herein. Briefly, oocytes were hand-dissected from ovarian tissue of adult female Xenopus laevis. Individual oocytes were obtained by gentle agitation in Barth's solution (Silbernagl, Physiol. Rev. 68:912-1007 (1988)) 1.0% collagenase (to remove follicular cells) and 0.1% trypsin inhibitor for 60 min followed by a 30 to 60 min incubation in 100 mM K2 HP04, pH 6.5, 0.1% BSA (modified from Dumont, J. Morphol. 136:153-179 (1972)). Oocytes were maintained in Barth's solution at 18° C. After 16 to 24 hr, the healthy oocytes were injected with 50 nl of water or mRNA (0.2 to 1 mg/ml) and incubated in Barth's solution with gentamicin at 18° C. for another 3 to 8 days.
(§3) Na^+ /nucleoside transporter activity was assayed by measuring the Na^+ -dependent uptake by the chimeric construct, SNST1c. […] Because of the sequence similarity to SGLT1, it was hypothesized that the transport would be Na^+ -dependent. Therefore, the uptake of ^22 Na^+ in the presence of potential substrates was monitored.
as §1

Experiment [3] has the same test system. The experiment can be described thus: 22Na+ uptake in the presence of potential substrates in oocytes expressing SNST1c. Format: cell-based, rabbit. The settings on record: SNST1c-injected oocytes. As to the method:
as §2, §3, §1

Experiment [4] relates to Na+/glucose cotransporter SGLT1. The conditions noted are these: SGLT1-injected oocytes.
Procedure: Xenopus oocytes were dissected and injected, and transport was measured as described below. […] Briefly, oocytes were hand-dissected from ovarian tissue of adult female Xenopus laevis. […] Oocytes were maintained in Barth's solution at 18° C. After 16 to 24 hr, the healthy oocytes were injected with 50 nl of water or mRNA (0.2 to 1 mg/ml) and incubated in Barth's solution with gentamicin at 18° C. for another 3 to 8 days.
[All of the solutions contained 2 mM KCL, 1 mM MgCl2, 1 mM CaCl2, 10 mM HEPES/Tris, pH 7.5 and either 100 mM NaCl (Na^+ transport buffer) or 100 mM choline-Cl (choline transport buffer). The uptake solutions contained radiolabeled substrate while the wash solutions contained nonradioactive substrate. Oocytes were injected with water as a control, or SNST1c cRNA (50 ng). […] Transport of substrate was assayed by placing 4-6 oocytes in 0.5 ml of radioactive uptake solution, preceded by a 30 min preincubation in a Na^+ -free (100 mM choline-Cl) solution when Na^+ -dependent transport was to be measured. […] The oocytes were individually dissolved in 1.0 ml of 10% SDS and assayed for radioactivity. All data are expressed as mean ±SD. […] Uptakes were measured in Na^+ containing buffer (Coady et al., supra) Oocytes were injected with water as a control, or SNST1c cRNA (50 ng) .
Experiment [5] deals with Na+/glucose cotransporter protein. The conditions noted are these: cited from earlier work.
The test system of experiment [6] is oocyte transporter (Na+/nucleoside cotransport in the oocyte membrane). Nature of the experiment: Inhibition of endogenous Na+/nucleoside cotransport in the oocyte membrane. The settings on record: endogenous transport of the oocyte membrane. The experiment is classed as cell-based, Xenopus laevis. The procedure: as §1, with “Transport was stopped by washing the oocytes five times with 4 ml of ice-cold choline solution containing excess unlabeled substrate.” left out, “FIG. 4A indicates cation dependence of 1 μM [^3 H]uridine uptake in oocytes expressing SNST1c 4 days post-injection. In addition, inhibition of 0.6 μM [^3 H] uridine uptake in oocytes by 1 mM nucleosides was determined (FIG. 4B).” left out

In experiment [7] the test system is Na+/nucleoside cotransport in the kidney brush border. The conditions noted are these: Lee et al. 1990; cited from earlier work.
For experiment [8], the system named is SNST1c (chimeric Na+/nucleoside cotransporter SNST1). Nature of the experiment: Uptake of radiolabelled substrates in Xenopus oocytes expressing SNST1c. The settings on record: oocytes printed as SGLT1c, n=6 oocytes. Format: cell-based, rabbit.

pIC50: −log10 of the molar value.

In the case of `Nc1ccn([C@@H]2O[C@H](CO)[C@@H](O)[C@H]2O)c(=O)n1` [cytidine], the “inhibition of [3H]uridine transport by SNST1c” value (shortened to “inhibition … by SNST1c”) in experiment [1] was “inhibited”.
In the case of `CNC(C)(C)C(=O)O` [methyl-aminoisobutyric acid], the “transport of radiolabelled substrate by SNST1c” value in experiment [2] was “none of these was transported”.
As to `Nc1nc2c(ncn2[C@@H]2O[C@H](CO)[C@@H](O)[C@H]2O)c(=O)[nH]1` [guanosine], in experiment [1], the “inhibition … by SNST1c” value was “inhibited”.
`Cc1ncc(C[n+]2csc(CCO)c2C)c(N)n1` [thiamine]: in experiment [3], the “signal of 22Na+ uptake in the presence of potential substrate” value (from here on “signal of 22Na+ uptake”) was “no signals”.
3-O-methylglucose: the “transport of radiolabelled substrate by SNST1c” value in experiment [2] was “none of these was transported”.
Same read-out and setting: for `NCCCC[C@H](N)C(=O)O` [lysine] the value was “none of these was transported”.
`O=c1ccn([C@@H]2O[C@H](CO)[C@@H](O)[C@H]2O)c(=O)[nH]1` [uridine]: the 3H-uridine uptake in experiment [2] (SNST1c-injected oocytes, n=5 oocytes) is given as 722±108 fmol ^3 H-uridine/oocyte/hr; in experiment [4] (n=5 oocytes), 309±78 fmol ^3 H-uridine/oocyte/hr. Besides, the “transport of radiolabelled substrate by SNST1c” value in experiment [2] is recorded as “transported”. For the same compound, in experiment [1], the “inhibition … by SNST1c” value is listed as “inhibited”.
Take `O=C(CCc1ccc(O)cc1)c1c(O)cc(O[C@@H]2O[C@H](CO)[C@@H](O)[C@H](O)[C@H]2O)cc1O` [4' glycoside]: the “activity as inhibitor of glucose transport” value in experiment [5] (Diedrich 1990) was “inactive”.
On to `Nc1ccn([C@H]2CC[C@@H](CO)O2)c(=O)n1` [dideoxycytidine], for which the “inhibition of the oocyte Na+/nucleoside transporter” value in experiment [6] was “did not inhibit”.
With `O=C(CCc1ccc(O)cc1)c1c(O)cc(O)cc1O[C@@H]1O[C@H](CO)[C@@H](O)[C@H](O)[C@H]1O` [Phloridzin], the “inhibition of the expressed Na+/nucleoside cotransporter” value in experiment [1] (1 mM phloridzin, n=2, Xenopus oocytes) turned out to be 87%. Moreover, the pIC50 in experiment [5] (mammalian intestine and kidney, competitive inhibition, read-out: concentration for fifty percent inhibition of sodium dependent sugar transport) is 5.30. The “inhibition of Na+/nucleoside cotransport in the kidney brush border” value in experiment [7] is “inhibits”.
`Nc1ncnc2c1ncn2[C@@H]1O[C@H](CO)[C@@H](O)[C@H]1O` [adenosine]: the “inhibition … by SNST1c” value in experiment [1] was “inhibited”.
Take `O=C(O)CCC(=O)O` [succinate]: in experiment [2], the “transport of radiolabelled substrate by SNST1c” value is listed as “none of these was transported”.
For `C[N+](C)(C)CC(=O)O` [betaine], the “signal of 22Na+ uptake” value in experiment [3] was “no signals”.
In the case of `O=C(O)CCCC[C@@H]1SC[C@@H]2NC(=O)N[C@@H]21` [biotin], the “transport of radiolabelled substrate by SNST1c” value in experiment [2] is on record as “none of these was transported”.
Still for that read-out and setting: then `C[C@H](N)C(=O)O` [alanine], with “none of these was transported”.
For `NCCS(=O)(=O)O` [taurine], the “transport of radiolabelled substrate by SNST1c” value in experiment [2] is recorded as “none of these was transported”.
Same read-out and setting: for `CC(O)C(=O)O` (stereo not shown) [lactate] the value was “none of these was transported”.
For the compound `O=c1ccn([C@H]2C[C@H](O)[C@@H](CO)O2)c(=O)[nH]1` [2-deoxyuridine], the “inhibition … by SNST1c” value in experiment [1] is recorded as “inhibited”.
As to `O=C(O)[C@@H]1CCCN1` [proline], in experiment [2], the “transport of radiolabelled substrate by SNST1c” value was “none of these was transported”.
In the case of `C[C@H](CCC(=O)O)[C@H]1CC[C@H]2[C@@H]3[C@H](O)C[C@@H]4C[C@H](O)CC[C@]4(C)[C@H]3C[C@H](O)[C@]12C` [cholate], the “signal of 22Na+ uptake” value in experiment [3] was “no signals”.
Same read-out and setting: then `O[C@H]1[C@H](O)[C@@H](O)[C@H](O)[C@@H](O)[C@H]1O` [myoinositol], with “no signals”.
For the compound `N[C@@H](Cc1ccccc1)C(=O)O` [phenylalanine], the “transport of radiolabelled substrate by SNST1c” value in experiment [2] was “none of these was transported”.
With `CO[C@H]1O[C@H](CO)[C@@H](O)[C@H](O)[C@H]1O` [αMDG, α-methyl-D-glucopyranose], in experiment [2], the “transport of radiolabelled substrate by SNST1c” value is “none of these was transported”. The “signal of 22Na+ uptake” value in experiment [3] was “no signals”. In addition, the 14C-αMDG uptake in experiment [4] (n=6 oocytes) worked out at 70±19 pmol ^14 C-αMDG/oocyte/hr; in experiment [8], 0.5±0.1 pmol ^14 C-αMDG/oocyte/hr.

(Values after patent US5410031A, “Nucleoside cotransporter protein cDNA” (The Regents of the University of California Office of …, priority 1992, dated 1995).)
